Measurements as given in US6506800B2, “1,4 diaryl-2,3-difluoro-2-butene insecticidal and acaricidal agents” (BASF Aktiengesellschaft, priority 2000, dated 2003).

Tests used:
Assay type in all cases: in vivo
[1] = system: Spodoptera eridania, 3rd instar larvae, southern armyworm (SAW); test: Southern armyworm (SAW) leaf-dip test; conditions: lima bean leaf dip, after 5 days, kill rating 0-9
Experimental: (§1) Test solutions are prepared by dissolving the test compound in a 35% acetone in water mixture to give a concentration of 10000 ppm. Subsequent dilutions are made with water as needed.
Spodoptera eridania, 3rd instar larvae, southern armyworm (SAW)
A Sieva lima bean leaf expanded to 7-8 cm in length is dipped in the test solution with agitation for 3 seconds and allowed to dry in a hood. The leaf is then placed in a 100×10 mm petri dish containing a damp filter paper on the bottom and ten 3rd instar caterpillars. After 5 days, observations are made of mortality, reduced feeding, or any interference with normal molting.

[2] = system: Diabrotica virgifera virgifera Leconte, 3rd instar western corn rootworm (WCR); test: Western corn rootworm (WCR) soil test; conditions: 1.25 mg active ingredient per jar in soil (approx. 50 kg/ha), 5 days, kill rating 0-9
Experimental: Diabrotica virgifera virgifera Leconte, 3rd instar western corn rootworm (WCR) One ccm of fine talc is placed in a 30 ml wide-mouth screw-top glass jar. One ml of the appropriate acetone test solution is pipetted onto the talc so as to provide 1.25 mg of active ingredient per jar. The jars are set under a gentle air flow until the acetone is evaporated. The dried talc is loosened, 1 ccm of millet seed is added to serve as food for the insects and 25 ml of moist soil is added to each jar. The jar is capped and the contents thoroughly mixed mechanically. Following this, ten 3rd instar rootworms are added to each jar and the jars are loosely capped to allow air exchange for the larvae. The treatments are held for 5 days when mortality counts are made. Missing larvae are presumed dead, since they decompose rapidly and cannot be found. The concentrations of active ingredient used in this test correspond approximately to 50 kg/ha.

[3] = system: Heliothis virenscens, 3rd instar tobacco budworm (TBW); test: Tobacco budworm (TBW) cotton cotyledon dip test; set-up: key: 0 = no effect; 1 = 10-25% kill; 2 = 26-35% kill; 3 = 36-45% kill; 4 = 46-55% kill; 5 = 56-65% kill; 6 = 66-75% kill; 7 = 76-85% kill; 8 = 86-99% kill; 9 = 100% kill; conditions: 3 days, kill rating 0-9
Experimental: as §1
Heliothis virenscens, 3rd instar tobacco budworm (TBW)
Cotton cotyledons are dipped in the test solution and allowed to dry in a hood. When dry, each is cut into quarters and ten sections are placed individually in 30 ml plastic medicine cups containing a 5 to 7 mm long piece of damp dental wick. One 3rd instar caterpillar is added to each cup and a cardboard lid placed on the cup. Treatments are maintained for 3 days before mortality counts and estimates of reduction in feeding damage are made.

[4] = system: Aphis fabae, mixed instar, bean aphid (BA); test: Bean aphid (BA) spray test on nasturtium; set-up: key: 0 = no effect; 1 = 10-25% kill; 2 = 26-35% kill; 3 = 36-45% kill; 4 = 46-55% kill; 5 = 56-65% kill; 6 = 66-75% kill; 7 = 76-85% kill; 8 = 86-99% kill; 9 = 100% kill; conditions: spray on infested nasturtium plants, 2 days, kill rating 0-9
Experimental: Test solutions are prepared by dissolving the test compound in a 35% acetone in water mixture to give a concentration of 10000 ppm. Subsequent dilutions are made with water as needed. Aphis fabae, mixed instar, bean aphid (BA) Pots containing single nasturtium plants (Tropaeolum sp.) about 5 cm tall are infested with about 100-200 aphids one day before the test. Each pot is sprayed with the test solution for 2 revolutions of a 4 rounds per minute (rpm) turntable in a hood. The spray is directed to give complete coverage of the plants and aphids. The sprayed pots are set on their sides on white trays and held for 2 days, following which mortality estimates are made.

[5] = system: Tetranychus urticae (OP-resistant strain), 2-spotted spider mite (TSM); test: 2-spotted spider mite (TSM) plant dip test; set-up: key: 0 = no effect; 1 = 10-25% kill; 2 = 26-35% kill; 3 = 36-45% kill; 4 = 46-55% kill; 5 = 56-65% kill; 6 = 66-75% kill; 7 = 76-85% kill; 8 = 86-99% kill; 9 = 100% kill; conditions: dip of infested lima bean plants, 2 days, kill rating 0-9
Experimental: as §1
Tetranychus urticae (OP-resistant strain), 2-spotted spider mite (TSM)
Sieva lima bean plants with primary leaves expanded to 7-8 cm are selected and cut back to one plant per pot. A small piece is cut from an infested leaf taken from the main colony and placed on each leaf of the test plants. This is done about 2 hours before treatment to allow the mites to move over to the test plant to lay eggs. By the size of the cut, infested leaf is varied to obtain about 100 mites per leaf. At the time of test treatment, the piece of leaf used to transfer the mites is removed and discarded. The newly-infested plants are dipped in the test solution for 3 seconds with agitation and set in the hood to dry. After 2 days, one leaf is removed and mortality counts are made.

SMILES | SAW (100 ppm) rating [1] | WCR (50 ppm) rating [2] | TBW (100 ppm) rating [3] | BA (100 ppm) rating [4] | TSM (100 ppm) rating [5]
COCCC(/C(F)=C(\F)Cc1cccc(Oc2ccccc2)c1)c1ccc(Cl)cc1 (centres unmarked) [Compound 1, 1-[(2E)-4-(4-chlorophenyl)-2,3-difluoro-6-methoxy-2-hexenyl]-3-phenoxybenzene] | 9 (9 = 100% kill) | 8 (8 = 86-99% kill) | 0 | 2 (2 = 26-35% kill) | 0
C=CCC(/C(F)=C(\F)Cc1cccc(Oc2ccccc2)c1)c1ccc(Cl)cc1 (centres unmarked) [Compound 2, 1[(2E)-4-(4-chlorophenyl)-2,3-difluoro-2,6-heptadienyl]-3-phenoxybenzene] | 9 (9 = 100% kill) | 9 (9 = 100% kill) | 9 (9 = 100% kill) | 9 (9 = 100% kill) | 0
C=CC(/C(F)=C(\F)Cc1cccc(Oc2ccccc2)c1)c1ccc(Cl)cc1 (centres unmarked) [Compound 3, 1-[(2E)-4-(4-chlorophenyl)-2,3-difluoro-2,5-hexadienyl]-3-phenoxybenzene] | 9 (9 = 100% kill) | 9 (9 = 100% kill) | 9 (9 = 100% kill) | 9 (9 = 100% kill) | 0
COCCC(/C(F)=C(\F)Cc1ccc(F)c(Oc2ccccc2)c1)c1ccc(Cl)cc1 (centres unmarked) [Compound 4, 4-[(2E)-4-(4-chlorophenyl)-2,3-difluoro-6-methoxy-2-hexenyl]-1-fluoro-2-phenoxybenzene] | 9 (9 = 100% kill) | 9 (9 = 100% kill) | 9 (9 = 100% kill) | 0 | 0
